Assay results taken from PMC8665362, “Identification of small-molecule allosteric modulators that act as enhancers/disrupters of rhodopsin oligomerization” (The Journal of Biological Chemistry, 2021).

Tests used:
[1] = molecular target: rhodopsin (isorhodopsin) dimerization (Homo sapiens, UniProt P08100); assay: rhodopsin β-gal fragment complementation assay in U2OS opsin-EA/opsin-PK cells; assay type: cell-based; parameters: expressed in transfected cells; conditions: U2OS opsin-EA/PK cells regenerated with 9-cis-retinal; triplicates; read from Fig. 3A,D
Chain of rhodopsin (isorhodopsin) dimerization (P08100 whole entry, the tested form may be a part): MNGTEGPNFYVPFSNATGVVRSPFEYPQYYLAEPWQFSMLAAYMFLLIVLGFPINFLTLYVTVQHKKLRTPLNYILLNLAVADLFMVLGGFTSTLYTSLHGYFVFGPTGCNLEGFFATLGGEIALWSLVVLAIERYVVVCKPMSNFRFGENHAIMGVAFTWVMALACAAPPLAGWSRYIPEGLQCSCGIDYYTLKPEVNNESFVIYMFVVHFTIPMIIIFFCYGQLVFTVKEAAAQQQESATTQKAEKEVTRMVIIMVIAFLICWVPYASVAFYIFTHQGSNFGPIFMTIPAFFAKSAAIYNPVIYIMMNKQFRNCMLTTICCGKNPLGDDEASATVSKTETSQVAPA
Description: To identify small molecules that target rhodopsin dimerization, a cell-based high-throughput screening (HTS) assay was used to screen a diverse library of 50,000 compounds from Life Chemicals. The human osteosarcoma (U2OS) stable cell line was used, which expresses opsin fused with complimentary subunits of β-galactosidase (β-gal), namely, the enzyme acceptor large β-gal subunit (EA) and the enzyme donor, small subunit of β-gal (PK). Upon rhodopsin self-association in vitro, a competent β-gal was formed and chemiluminescent signal was generated in the presence of β-gal substrate (Fig. 1A). For further validation, the β-gal activity assay was used to counter-screen and rule out false positives, affecting the activity of β-gal without affecting rhodopsin (Fig. 1B) ([34]). In an orthogonal assay, rhodopsin dimerization was assessed using a bioluminescence resonance energy transfer (BRET) assay with human embryonic kidney 293 cells expressing opsin fused with Renilla luciferase and opsin fused with Venus (Fig. 1C) ([35], [36]). To form functional visual pigment, opsin-fused proteins were regenerated with 9-cis-retinal to form so-called isorhodopsin ([37]). We chose 9-cis-retinal over photoreceptor-endogenous 11-cis-retinal because of its availability and the prohibitive cost for HTS assays with the native chromophore. Rhodopsin and isorhodopsin have similar biochemical and spectral properties (see ([38])).
All 50,000 compounds were screened, using the β-gal complementation assay at a final concentration of 60 μM with a Z′ factor of 0.75 ± 0.01 and a signal-to-background (S/B) ratio of 123 ± 14.4 (Fig. 2A) ([39]). The activity scores were calculated according to the following equation: (RLU(compound)−RLU(positivecontrol))/(RLU(negativecontrol)−RLU(positivecontrol))×100.
The positive control comprised U2OS cells transfected with both opsin-EA and opsin-PK, mimicking dimer formation (with a 0% score value), and the negative control comprised U2OS cells transfected with opsin-EA only, mimicking disrupted dimer formation (with a 100% score value).
In this study, cultured U2OS opsin-EA and opsin-PK cells were diluted to 2 × 10^5 cells/ml in the culture medium containing 10% fetal bovine serum (Thermo Fisher Scientific) and 1% penicillin-streptomycin 10,000 U/ml (Thermo Fisher Scientific). Cell diluent of 20 μl/well was dispensed into a white ViewPlate-384 (PerkinElmer) using the EL406 plate dispenser (BioTek). As a control, we used U2OS opsin-EA–only expressing cells as a positive control for dimerization disruption generating a minimal luminescence signal, as previously described ([41]). The plates were cultured overnight at 37 °C in 5% CO2, and the next day, under a dim red light, cells were treated with 5 μl/well of 9-cis-retinal (Sigma-Aldrich) at 7.5 μM final concentration. Plates were covered with aluminum foil and cultured overnight at 37 °C in 5% CO2. Next, cells were treated with each of the 50,000 library compounds (Life Chemicals Inc) at a final concentration of 57.6 μM, using a JANUS automated workstation (PerkinElmer), followed by incubation overnight at 37 °C, covered with aluminum foil. The next day, cells were treated with Galacton-Star chemiluminescent substrate (23 μl/well; Thermo Fisher Scientific). The plates were covered with foil and incubated at 20 °C for 2 h, followed by luminescence reading with the EnSpire multimode plate reader (PerkinElmer). Measurements were evaluated with the lowest value being defined as −50% (dimer enhancers) and the highest value as 100% (dimer disrupters) in the compound dataset. All experiments were done under red-light conditions. Identified compounds were retested in triplicates ranging from 180 μM down to 2.4 nM concentrations.

[2] = tested on: individual rod photoreceptors; assay: single-cell suction electrode recording from rod outer segments; assay type: cell-based, mouse (C57BL/6J); conditions: suction electrode, 250 μM compound
Procedure: Because it is possible that reduction of Rmax by compound #1 is due to some effect(s) on the rod photoreceptor inner segment currents that are not directly related to phototransduction ([51], [52]), we conducted also single-cell suction electrode recordings from the ROS from samples that were incubated either in the control medium or in the medium containing enhancer compound #1. The results from single cell recordings were similar to those obtained using ex vivo ERG: Rmax and fractional sensitivity were decreased from 12 (±0.4) to 9 (±0.3) pA and from 3.0 (±0.5) to 1.8 (±0.1)% per photon μm^−2, respectively, by rhodopsin dimerization–enhancing hit #1 (Fig. 6, A–C). Like the ex vivo ERG recordings, light response kinetics was not affected by compound #1 in the single-cell recordings (Fig. 6D).
Suction electrode recordings from individual rod photoreceptors of dark-adapted C57BL/6J mice were conducted as described previously ([65]). Before recordings, isolated retinas were incubated in the control medium (Ames’ medium + 0.1% DMSO) or in the hit compound–containing medium (Ames’ medium +250 μM F2502-0030 (#1)) as described above for ex vivo ERG experiments. After incubation, one half of the retina was chopped with a razor blade and transferred into a chamber where it was perfused at 1 ml/min with Ames’ medium saturated with 95% O2/5% CO2 at 35 °C. Recordings were made from a single ROS, using borosilicate glass electrodes with ∼1.5-μm opening (resistance ∼2 MΩ at 35 °C). The pipette solution was Hepes buffered Ames’ medium composed of 0.88 g Ames’ powder (A1420, Sigma-Aldrich), 0.357 g Hepes (Sigma-Aldrich), and 58.44 mg NaCl in […] distilled and vacuum-filtered water. The pH was adjusted to 7.4 with NaOH. Light responses were recorded to flashes of light ranging from 8 to 700 photons μm^−2 at 500 nm. For analysis, data were low-pass filtered using an 8-pole Bessel filter with cut-off frequency at 30 Hz.

O=C(CSc1nnc(NC(=O)Cc2ccc(F)cc2)s1)NO [#1]
EC50 [1]: 2300 nM | light response kinetics (single-cell) [2]: not affected | fractional sensitivity (single-cell) ([2]; control 3.0 (±0.5)): 1.8 (±0.1) % per photon μm^−2 | Rmax (single-cell) ([2]; control 12 (±0.4)): 9 (±0.3) pA
